Where a name gives a salt, the structure may show the parent alone.
Experiments:
rat steroid 17-20 lyase = molecular target: T1, rat steroid 17-20 lyase (Rattus norvegicus, UniProt P11715); assay: Measurement of rat steroid 17-20 lyase inhibiting activity (rat testicular microsomes); format: biochemical, rat (male Wistar); conditions: 1 μM [1,2-3H]-17α-hydroxyprogesterone, NADPH, pH 7.4, 37° C., 60 minutes, read-out: Concentration of drug to inhibit 50% of steroid 17-20 lyase activity (IC50)
T1 construct: A testis was excised from a ten-week-old male Wistar rat, homogenized and then centrifuged to obtain microsomes; from tissue; host or cells: testicular microsomes of ten-week-old male Wistar rats
T1 sequence (P11715 1-507): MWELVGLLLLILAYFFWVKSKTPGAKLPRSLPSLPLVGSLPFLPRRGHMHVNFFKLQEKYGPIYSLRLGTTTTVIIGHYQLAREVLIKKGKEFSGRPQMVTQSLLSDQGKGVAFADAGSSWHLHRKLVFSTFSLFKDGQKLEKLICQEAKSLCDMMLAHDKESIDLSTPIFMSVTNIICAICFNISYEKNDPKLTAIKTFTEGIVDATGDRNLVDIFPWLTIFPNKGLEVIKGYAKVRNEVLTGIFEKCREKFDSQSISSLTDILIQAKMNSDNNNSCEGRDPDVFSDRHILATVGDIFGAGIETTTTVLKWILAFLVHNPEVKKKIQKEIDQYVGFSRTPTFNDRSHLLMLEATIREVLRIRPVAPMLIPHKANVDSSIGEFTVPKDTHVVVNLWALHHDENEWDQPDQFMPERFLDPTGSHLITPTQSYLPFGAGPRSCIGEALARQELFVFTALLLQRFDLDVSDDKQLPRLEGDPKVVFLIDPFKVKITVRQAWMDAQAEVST
Protocol: (1) Measurement of rat steroid 17-20 lyase inhibiting activity
Carried out in accordance with the procedure described in J. Steroid Biochem., Vol.33, No.6, 1191-1195 (1989).
A testis was excised from a ten-week-old male Wistar rat, homogenized and then centrifuged to obtain microsomes. A 50 μg portion of the microsomal protein, 1 μM of [1,2-^3 H]-17α-hydroxyprogesterone (5.55×10^5 dpm) and a test compound were dissolved in 100 μl of 50 mM phosphate buffer (pH 7.4), and the solution was mixed with NADPH solution and incubated at 37° C. for 60 minutes. This was mixed with 400 μl of a mixed solvent of methanol and tetrahydrofuran (2:3) and subjected to centrifugation, and radioactivities of the substrate and products (androstenedione and testosterone) in the resulting supernatant fluid were measured using a high performance liquid chromatography (HPLC) equipped with a radioactive isotope detector to examine activity of the test compound to inhibit steroid 17-20 lyase.
The steroid 17-20 lyase inhibiting activity in rat testicular microsomes was calculated as IC50 value by the method described in the above test method (1), with the results shown in Table 1.

testosterone synthesis = assay: Measurement of in vivo rat testosterone synthesis inhibiting activity (LH-RH stimulated); conditions: 1 mg/kg, oral, fasted male Wistar rats; LH-RH 60 ng/rat i.m. 1 h after drug, blood 1 h thereafter; serum testosterone
Protocol: (2) Measurement of in vivo rat testosterone synthesis inhibiting activity
Carried out in accordance with the procedure described in J. Steroid Biochem., Vol.32, No.6, 781-788 (1989).
Each test drug was orally administered to ten-week-old male Wistar rats under fasting. One hour after the drug administration, LH-RH (60 ng/rat) was administered by intramuscular injection to accelerate testosterone synthesis. One hour thereafter, blood was collected by decapitation, and concentration of testosterone in the thus obtained serum was measured by a radioactive isotope assay to calculate testosterone synthesis inhibiting activity.
The in vivo activity to inhibit synthesis of testosterone in rats measured by the above test method (2) was expressed as a testosterone synthesis inhibition ratio (%) to the control group when each test compound or a control compound was administered in a dose of 1 or 10 mg/kg (Table 2).

SMILES: CC(c1ccc2c(c1)Nc1ccccc1S2)n1ccnc1 (stereo not shown) [Example 10, 2-[1-(1H-Imidazo1-1-yl)ethyl]phenothiazine monooxalate]
- IC50 (rat steroid 17-20 lyase): 6.9 nM

SMILES: c1ccc2c(c1)Cc1cc(Cn3ccnc3)ccc1-2 [Example 7, 1-[(9H-Fluoren-2-yl)methyl]-1H-imidazole]
- Testosterone synthesis inhibition ratio (to the control group) (testosterone synthesis): 78.4%

SMILES: CC(c1ccc2c(c1)Cc1ccccc1-2)n1ccnc1 (stereo not shown) [Example 2, 1-[1-(9H-fluoren-2-yl)ethyl]-1H-imidazole hydrochloride]
- Testosterone synthesis inhibition ratio (to the control group) (testosterone synthesis): 86.3%
- IC50 (rat steroid 17-20 lyase): 4 nM

SMILES: CC(C)(c1ccc2c(c1)Cc1ccccc1-2)n1ccnc1 [Example 4, 1-[1-(9H-fluoren-2-yl)-1-methylethyl]-1H-imidazole]
- IC50 (rat steroid 17-20 lyase): 5 nM

SMILES: CC(c1ccc2c(c1)sc1ccccc12)n1ccnc1 (stereo not shown) [Example 8, 1-[1-(Dibenzothiophen-3-yl)ethyl]-1H-imidazole]
- Testosterone synthesis inhibition ratio (to the control group) (testosterone synthesis): 73.0%
- IC50 (rat steroid 17-20 lyase): 5.7 nM

From patent US5807880A, “Azole derivative and pharmaceutical composition thereof” (Yamanouchi Pharmaceutical Co., Ltd., priority 1993, dated 1998)
